Source: paper PMC11404609, “Gut microbiota-mediated C-sulfonate metabolism impairs the bioavailability and anti-cholestatic efficacy of andrographolide” (Gut Microbes, 2024)
“Also recorded” adds a separate entry of the source.

Key:
[1] = tested on: intestinal flora of mice; assay: Co-culturing AP with cecum samples from mice; assay type: in vitro ADME; details: AP 10 μg/mL, anaerobic, 37°C, 6 h
Experimental: The cecum contents from mice were collected and mixed with sterilized anaerobic medium in a ratio of 1.0 g to 10 mL, with gentle agitation. After filtered, the mixed medium containing the intestinal flora was placed in an anaerobic environment and preincubated at 37°C for 30 min before use. Mixed medium with or without APS reductase inhibitor bromocriptine mesylate (20 μg/mL) was incubated with AP (10 μg/mL), while autoclaved mixed medium without APS reductase inhibitor served as the control. Incubation was performed in a shaking incubator at 37°C for 6 h, with strict maintenance of anaerobic condition throughout the process.[44] Similarly, D. piger (0.2 mL, 1 × 10^8 CFU/mL) with or without inhibitor, was incubated with AP for 0, 3, 6, and 12 h, with autoclaved D. piger without inhibitor serving as the control. The reaction was terminated by adding cold methanol contained IS. And then samples were analyzed by UPLC-MS/MS to detect the concentrations of AP and APM. Concentrations of APS reductase and HSO3^− were also determined at the end of incubation.
For the determination of APS reductase concentration, the supernatant from mouse cecum contents and the D. piger strain were assessed using microorganism APS reductase elisa assay kit (Shanghai Senxingyan Biotechnology Co., Ltd., China), following the instructions provided with the kit. For the determination of HSO3^− concentration, cecum contents from mice or rats were weighed and homogenized in five volumes of normal saline (based on tissue weight). The homogenate was then subjected to centrifugation at 13,000 rpm and 4°C for 15 min. The supernatant (or perfusate) was collected and mixed with 0.2% formaldehyde, 0.05% basic fuchsin, and 0.01% EDTA-Na2 in a ratio of 1:1:1:9 under acidic conditions. To establish a standard curve, different concentrations of NaHSO3 were used. Subsequently, the absorbance of the resulting solutions was measured at a wavelength of 560 nm after 40 min.

[2] = tested on: ANIT-induced cholestatic liver injury; assay: Anti-cholestatic effect in ANIT-induced cholestatic liver injury (plasma ALT, AST, TBA, TBIL, liver H&E); assay type: in vivo, mice; details: for anti-cholestatic effect: AP 200 mg/kg
Experimental: To investigate the impact of gut microbiota on the anti-cholestatic effect of AP, Control and ABX mice were divided into five groups, respectively: Vehicle, AP (200 mg/kg), ANIT (50 mg/kg), ANIT+AP (200 mg/kg), and ANIT+S-AMe (100 mg/kg).
Similarly, to investigate the impact of C-sulfonate metabolism on the anti-cholestatic effect of AP, mice were randomly divided into two groups: p.o. group (oral administration) and i.p. group (intraperitoneal injection). The p.o. group was further divided into six subgroups: Vehicle, AP (400 mg/kg), ANIT (50 mg/kg), ANIT+AP (100 mg/kg), ANIT+AP (200 mg/kg), ANIT+AP (400 mg/kg). While the i.p. group was divided into five subgroups: Vehicle, AP (200 mg/kg), ANIT (50 mg/kg), ANIT+AP (100 mg/kg), ANIT+AP (200 mg/kg).
Additionally, to investigate the effect of APS reductase inhibitor on the anti-cholestatic effect of AP, mice were randomly divided into Control and Inhibitor groups, each further divided into five subgroups: Vehicle, AP (200 mg/kg), ANIT (50 mg/kg), ANIT+AP (200 mg/kg), and ANIT+S-AMe (100 mg/kg). The mice received APS reductase inhibitor bromocriptine mesylate by oral gavage (20 mg/kg, p.o.) 2 weeks before AP treatment and continued until the end of the experiment. Furthermore, to investigate the important role of FXR in the anti-cholestatic effect of AP, WT and Fxr^-/- mice were, respectively, divided into the following groups: Vehicle, ANIT (50 mg/kg), and ANIT+AP (200 mg/kg).
In pharmacodynamic experiments, mice were administered AP at various dosages through different routes daily for a duration of 2 weeks. Additionally, S-AMe was administered at a dosage of 100 mg/kg via intraperitoneal injection (i.p.) daily for 2 weeks. A single dose of ANIT (50 mg/kg, p.o.) was administered 48 h before euthanizing the mice. At the conclusion of each experiment, the mice were euthanized, and blood samples were collected for biochemical analysis and tissue samples for histological examination and UPLC-MS/MS analysis.
Biochemical indicators of cholestatic liver injury, including alanine aminotransferase (ALT), aspartate aminotransferase (AST), total bile acid (TBA), and total bilirubin (TBIL), were assessed using assay kits obtained from Nanjing JianCheng Bioengineering Institute (Nanjing, China). The experimental procedures were conducted in accordance with the protocols provided by the manufacturer. Fresh liver tissues were fixed in 10% formalin, and prepared as 4-μm paraffin sections. These sections were stained with hematoxylin and eosin for examination of liver histopathology. The stained tissue sections were then observed and captured under an optical microscope for further analysis. Liver histological changes were quantified using a slightly modified scoring system published previously.[45] The scoring system comprised four histological features that were evaluated semi-quantitatively: necrosis and fibrosis (0–4), steatosis (0–3), lobular inflammation (0–2), and hepatocellular ballooning (0–2). The liver necrosis and fibrosis areas were quantified by area fraction analysis (Image J software, V1.8.0, National Institutes of Health, USA).[46]

Structure (SMILES): C=C1CC[C@@H]2[C@](C)(CO)[C@H](O)CC[C@@]2(C)[C@@H]1C/C=C1/C(=O)OC[C@H]1O [AP, Andrographolide]
- conversion of AP into APM by the intestinal flora [1]: notable conversion
- effect on ANIT-induced elevation of plasma biochemical indicators, liver cell necrosis, inflammatory cell infiltration ([2]; ABX mice (intestinal flora depleted), AP 200 mg/kg p.o., 2 weeks): markedly ameliorated
- protective effect against ANIT-induced liver injury ([2]; Control mice with intact intestinal flora, AP 200 mg/kg p.o., 2 weeks): weak protective effect
- anti-cholestatic effect ([2]; Fxr^-/- mice): completely abolished; also recorded: no protective effect
- anti-cholestatic effect ([2]; WT mice): superior anti-cholestatic effect; also recorded: significant effects
- alleviation of ANIT-induced cholestatic liver injury ([2]; mice, AP 200 mg/kg p.o. alone (inhibitor study)): did not exhibit significant alleviation
- alleviation of ANIT-induced cholestatic liver injury ([2]; mice, AP 200 mg/kg p.o. in combination with APS reductase inhibitor bromocriptine mesylate 20 mg/kg p.o.): notable amelioration of liver injury
- anti-cholestatic effect vs ANIT group ([2]; mice, intraperitoneal AP 100 mg/kg or 200 mg/kg): superior anti-cholestatic effect
- hepatoprotective effect vs ANIT group ([2]; mice, oral AP 400 mg/kg): significant efficacy
